Literature values, collected in US8071623B2, “Amide substituted indazoles as poly(ADP-ribose)polymerase(PARP) inhibitors” (Instituto di Ricerche di Biologia Molecolare P. Angeletti …, priority 2007, dated 2011).

System: ischemia and reperfusion of the heart
Conditions: rabbits

SMILES	reduced infarct size (single injection 1 mg/kg)	reductions in infarct size in the heart (single injection 10 mg/kg, one minute before occlusion or one minute before reperfusion)
Oc1cccc2c(O)nccc12 [1,5-dihydroxyisoquinoline]	38-48%	
NC(=O)c1cccc(N)c1 [3-amino-benzamide]		32-42%
